According to patent US10160705B2, “Class of HDAC inhibitors expands the renal progenitor cells population and improves the rate of recovery from acute kidney injury” (University of Pittsburgh—Of the Commonwealth System of …, priority 2011, dated 2018):

Test system: renal progenitor cells
Test: In situ hybridization for lhx1a expression in 10-somite embryos (renal progenitor cell expansion)
Type: in vivo
Conditions: for responders at 0.8 µM / responders at 1.5 µM / responders at 3 µM / EC50 / responders at 0.4 µM / responders at 0.2 µM: Danio rerio; for responders at 0.8 µM / responders at 1.5 µM / responders at 3 µM / responders at 0.4 µM / responders at 0.2 µM: percent of embryos with expanded kidney field; for responders at 0.8 µM: 800 nM, read-out: Expansion of Cells (including repeats* and recounts**) 800 nM; for responders at 1.5 µM: read-out: Expansion of Cells (including repeats* and recounts**) 1.5 μM; for responders at 3 µM: read-out: Expansion of Cells (including repeats* and recounts**) 3 μM; for EC50: first pass EC50 from percent expansion (Excel trendline), average where several experiments; for responders at 0.4 µM: 400 nM, read-out: Expansion of Cells (including repeats* and recounts**) 400 nM; for responders at 0.2 µM: 200 nM, read-out: Expansion of Cells (including repeats* and recounts**) 200 nM
Protocol: PTBA was synthesized as described below. Hydroxyurea and aphidicolin were obtained from Sigma-Aldrich.
In situ hybridization and immunocytochemistry: In situ hybridization was performed as previously described with some modifications.142 Hybridization temperature was 65° C. Embryos were blocked in 2% blocking reagent (Roche) with 5% sheep serum in MAB (100 mM maleic acid and 150 mM NaCl [pH 7.5]). Whole-mount immunocytochemistry with 1:25 mouse anti-α6F antibody (Developmental Studies Hybridoma Bank) and 1:100 Cy3 secondary antibody (Jackson ImmunoResearch) was performed as described previously.108 Embryos were embedded in JB-4 for sectioning per the manufacturer's instructions (Polysciences), sectioned at 5 μm, and mounted with Cytoseal 60 (Richard-Allan Scientific).
The remaining PTBA analogs were synthesized.
In situ hybridization for lhx1a was performed as described above. […] Compounds were classified as effective, partially-effective or ineffective based on comparison to the effects of PTBA at a given concentration.
Testing of the compounds is on-going, but for those tested, Table 6 provides first pass EC50s based upon colormetric in situ hybridizations for the Lhx1a mRNA expression levels. After the procedure is run, in situ hybridization is done for the lhx1 mRNA expression and the number of embryos that show an expanded kidney field is manually counted to establish the percent of embryos showing expansion. Then the EC50 is determined by plotting the percent expansion in Excel, graphing the results and using the trendline function to determine the 50 percent point.

Row | Compound | lhx1a expansion, percent of treated embryos (3 μM from 2 hpf, 10-somite embryos) | responders at 0.8 µM | responders at 1.5 µM | responders at 3 µM | EC50 | responders at 0.4 µM | responders at 0.2 µM
1 | NC(CCSc1ccccc1)C(=O)O (stereo not drawn) [Compound 2-amino-PTBA, 2-amino-PTBA, reference compound] | no expansion | – | – | – | – | – | –
2 | COC(=O)CCCCSc1ccc(F)cc1 [UPHD-00032, methyl 5-[(4-fluoro-phenyl)sulfanyl]pentanoate] | – | 0% | 0% | 0% | > 3000 nM | – | –
3 | COC(=O)CCCCSc1ccccc1 [UPHD-00033, methyl 5-(phenylsulfanyl)pentanoate] | – | 0% | 5% | 11% | > 3000 nM | – | –
4 | O=C(CCCCSc1ccc(F)cc1)NO [UPHD-00034, 5-[(4-fluoro-phenyl)sulfanyl]-N-hydroxypentanamide] | – | – | – | – | – | 10% | –
5 | O=C(CCCCSc1ccccc1)NO [UPHD-00035, N-hydroxy-5-(phenyl-sulfanyl)pentanamide] | – | 0% | 0% | 21.1% | > 3000 nM | 10% | 25%
6 | Nc1ccccc1NC(=O)CCCSc1ccccc1 [UPHD-00036, N-(2-aminophenyl)-4-(phenylsulfanyl)butanamide] | – | 45% | 85% | 100% | – | – | –
7 | Nc1ccccc1NC(=O)CCCCSc1ccc(F)cc1 [UPHD-00037, N-(2-aminophenyl)-5-[(4-fluoro-phenyl)sulfanyl]pentanamide] | – | – | – | – | 2590 nM | – | 10%
8 | Nc1ccccc1NC(=O)CCCCSc1ccccc1 [UPHD-00038, N-(2-aminophenyl)-5-(phenylsulfanyl)pentanamide] | – | 58% | 81% | 85% | – | – | –
9 | COC(=O)CCCCCCSc1ccc(F)cc1 [UPHD-00039, methyl 7-[(4-fluor-phenyl)sulfanyl]heptanoate] | – | 20% | 35% | 11% | > 3000 nM | – | –
10 | COC(=O)CCCCCCSc1ccccc1 [UPHD-00040, methyl 7-(phenylsulfanyl)heptanoate] | – | 6% | 15% | 45% | > 3000 nM | – | –
11 | O=C(CCCCCCSc1ccccc1)NO [UPHD-00041, N-hydroxy-7-(phenyl-sulfanyl)heptanamide] | – | 0% | 0% | 0% | > 3000 nM | – | –
12 | O=C(CCCCCCSc1ccc(F)cc1)NO [UPHD-00042, 7-[(4-fluoro-phenyl)sulfanyl]-N-hydroxyheptanamide] | – | – | – | – | > 3000 nM | – | –
13 | Nc1ccccc1NC(=O)CCCCCCSc1ccc(F)cc1 [UPHD-00043, N-(2-aminophenyl)-7-[(4-fluoro-phenyl)sulfanyl]heptanamide] | – | – | – | 57% | 3000 nM | 15% | 0%
14 | Nc1ccccc1NC(=O)CCCCCCSc1ccccc1 [UPHD-00044, N-(2-aminophenyl)-7-(phenylsulfanyl)heptanamide] | – | – | – | – | 1490 nM | – | –
15 | COC(=O)c1ccc(CSc2ccccc2)cc1 [UPHD-00045, methyl 4[(phenyl-sulfanyl)methyl]benzoate] | – | 17% | 0% | 17% | > 3000 nM | – | –
16 | COC(=O)c1ccc(CSc2ccc(F)cc2)cc1 [UPHD-00046, methyl 4-{[(4-fluoro-phenyl)sul-fanyl]methyl}benzoate] | – | 17% | 30% | 20% | > 3000 nM | – | –
17 | COC(=O)CCCCCSc1ccccc1 [UPHD-00047, methyl 6-(phenyl-sulfanyl)hexanoate] | – | 100% | 100% | 100% | 400 nM | – | –

Row | Compound | lhx1a expansion, percent of treated embryos (3 μM from 2 hpf, 10-somite embryos) | responders at 0.8 µM | responders at 1.5 µM | responders at 3 µM | EC50 | responders at 0.4 µM | responders at 0.2 µM
18 | COC(=O)CCCCCSc1ccc(F)cc1 [UPHD-00048, methyl 6-[(4-fluoro-phenyl)sulfanyl]hexanoate] | – | 100% | 100% | 100% | 280 nM | – | –
19 | Nc1ccccc1NC(=O)CCCCCSc1ccccc1 [UPHD-00049, N-(2-aminophenyl)-6-(phenylsulfanyl)hexanamide] | – | 60% | 95% | 100% | 890 nM | 35% | 5%
20 | O=C(CCCCCSc1ccccc1)NO [UPHD-00050, N-hydroxy-6-(phenyl-sulfanyl)hexanamide] | – | 0% | 0% | 0% | > 3000 nM | – | –
21 | O=C(CCCCCSc1ccc(F)cc1)NO [UPHD-00051, 6-[(4-fluoro-phenyl)sulfanyl]-N-hydroxyhexanamide] | – | – | – | 86.7% | 1900 nM | – | –
22 | O=C(NO)c1ccc(CSc2ccccc2)cc1 [UPHD-00052, N-hydroxy-4-[(phenyl-sulfanyl)methyl]benzamide] | – | 0% | 10% | – | > 3000 nM | 0% | 0%
23 | Nc1ccccc1NC(=O)CCCCCSc1ccc(F)cc1 [UPHD-00053, N-(2-aminophenyl)-6-[(4-fluoro-phenyl)sulfanyl]hexanamide] | – | 85% | 100% | 100% | 790 nM | 5% | 20%
24 | COC(=O)CCCCCSc1ccc2ccccc2c1 [UPHD-00057, methyl 6-(naphthalen-2-ylsulfanyl)hexanoate] | – | 11% | 18% | 29% | > 3000 nM | 19% | 19%
25 | COC(=O)CCCCCSc1ncccn1 [UPHD-00058, methyl 6-(pyrimidin-2-ylsulfanyl)hexanoate] | – | 20% | 28% | 6% | > 3000 nM | 33% | 17%
26 | O=C(CCCCCSc1ccc2ccccc2c1)NO [UPHD-00059, N-hydroxy-6-(naphthalen-2-ylsulfanyl)hexanamide] | – | 12% | 16% | 33% | > 3000 nM | 5% | 0%
27 | Nc1ccccc1NC(=O)CCCCCSc1ccc2ccccc2c1 [UPHD-00060, N-(2-aminophenyl)-6-(naphthalen-2-ylsulfanyl)hexanamide] | – | 10% | 20% | 5% | > 3000 nM | 0% | 5%
28 | O=C(NO)c1ccc(CCSc2ccccc2)cc1 [UPHD-00061, N-hydroxy-4-[2-(phenyl-sulfanyl)ethyl]benzamide] | – | 0% | 6% | 37% | > 3000 nM | 0% | 5.5%
29 | COC(=O)CCCCCSc1nc2ccccc2s1 [UPHD-00062] | – | 0% | 0% | 0% | > 3000 nM | 12% | 11%
30 | COC(=O)CCCCCS(=O)(=O)c1ccc2ccccc2c1 [UPHD-00063, methyl 6-(naphthalen-2-ylsulfonyl)hexanoate] | – | 0% | 0% | 6% | > 3000 nM | 5% | 10%
31 | COC(=O)CCCCCSc1ccccn1 [UPHD-00065, methyl 6-(pyridin-2-ylsulfanyl)hexanoate] | – | 6% | 11% | 29% | > 3000 nM | 20% | 0%
32 | Nc1ccccc1NC(=O)CCCCCS(=O)(=O)c1ccc2ccccc2c1 [UPHD-00066, N-(2-aminophenyl)-6-(naphthalene-2-sulfonyl)hexanamide] | – | 5% | 11% | 10% | > 3000 nM | 0% | 0%
33 | O=C(NO)c1ccc(CCSc2ccc(F)cc2)cc1 [UPHD-00067, 4-{2[(4-fluoro-phenyl)sulfanyl]ethyl}-N-hydroxybenzamide] | – | – | – | 20% | 800 nM | – | 17%
34 | O=C(CCCCCS(=O)(=O)c1ccc2ccccc2c1)NO [UPHD-00069, N-hydroxy-6-(naphthalene-2-sulfonyl)hexanamide] | – | 0% | 0% | 0% | > 3000 nM | 0% | 0%
